Assay results: US4751224A, “Treatment of metastasis” (Brown University Research Foundation, priority 1986, dated 1988)
“Also recorded” adds a separate entry of the source. Like-named read-outs stand apart in the source and are kept apart here.

Legend:
platelet aggregation [1] = experiment: inhibition of platelet aggregation in vitro; format: cell-based, human; conditions: molar basis, PGI2 compared to forskolin
[2] = test system: B16 amelanotic melanoma cells; experiment: PGI2 reduction of pulmonary tumor colonization by tail vein injected B16 amelanotic melanoma cells (Honn et al.); format: in vivo, mouse; conditions: PGI2 (Honn) compared with forskolin (applicant)
Text: Since tumor cell-platelet interactions play a role in tumor metastasis, several laboratories have examined anticoagulants and anti-aggregating agents, such as heparin, warfarin (Hagmar and Norrby, Vol. 5 Int. J. Cancer, pp. 72-84, [1970]; Lione and Bosmann, Vol. 2 Cell Biol. Int. Res., pp. 81-86 [1972]; Hoover and Ketcham, Vol. 35 Cancer, pp. 5-14 [1975]); aspirin (Gasic et al., Lancet II, pp. 932-933 [1972]; Wood and Hilgard, Lancet II, pp. 1416-1416 [1972]; Hilgard et al., Vol. 86 Z. Krebsforsch., pp. 243-250 [1976]) and dipyridamole (Hilgard in Interaction of Platelets and Tumor Cells, pp. 143-158, Jameson [ed.] [1982]; Ambrus et al. in Platelets: A Multidisciplinary Approach, pp. 467-48, de Gaetano [ed.] [1982]) to reduce the incidence of tumor metastasis without treating the tumor per se in experimental animal models. However, the results of many of these studies were inconclusive.

[3] = test system: B16 amelanotic melanoma cells; conditions: cited from earlier work
[4] = test system: human platelet aggregation induced by B16-F10 melanoma cells; experiment: B16-F10 melanoma cell-induced human platelet aggregation in vitro (light transmission in platelet-rich plasma); format: cell-based
Protocol: A mouse melanoma subline, B16-F10, (highly metastatic to the lungs) was obtained from EG & G Mason Research Institute, Worcester, MA, and adapted to growth in cell culture. The cultured cells were harvested by 1 min of trypsinization (0.25% trypsin-0.1% EDTA) or with the use of a rubber policeman, washed gently three times with Hank's balanced salts solution (HBBS, free of Ca^++ and Mg^++). […] Freshly drawn whole blood from healthy adult human donors was anticoagulated with heparin (5 units/ml). […] Platelet-rich plasma (PRP) was separated by centrifugation of the whole blood and platelet aggregation was measured in PRP by recording the increase in light transmission after the addition of the tumor cells.
Washed B16-F10 cell suspensions (2×10^7 /ml) were treated with potato apyrase (1 unit/ml) for about 5 min to degrade exogenous adenine nucleotides. Fifty microliters of the cell suspension was then added to the platelet-rich plasma after an incubation of 5 min with (A) 5 microliters DMSO (10% in saline) (Control) or (B) 5 microliters forskolin (200 micro Molars in DMSO 10% in saline). Final concentration of forskolin in PRP (500 microliters) was 2 micromolars.
The in vitro experimental procedure of Example I above was repeated using a combination of forskolin and oxagrelate. In this example the cell suspension was added to platelet-rich plasma incubated with a mixture of forskolin and oxagrelate.

B16-F10 melanoma cells = experiment: pulmonary tumor colonization after tail vein injection of B16-F10 cells; format: in vivo, mouse (C57BL/6)
Protocol: (§1) Washed B16-F10 tumor cells (2 or 3×10^5) in 100 microliters Hanks balanced salts solution were injected from the tail vein 60 min (Exp. 1) or 30 min (Exp. 2, 3) after i.p. injection of 200 microliters DMSO (20 percent in saline) in control group; or forskolin (5 mM) prepared in DMSO (100 percent) and diluted to 1 mM with saline just before injection. The mice were sacrificed after 9 days (Exp. 1) or 14 days (Exp. 2, 3) and the lungs removed for examination. The tumor foci were counted with the help of a dissecting microscope.
The in vivo experimental procedure of Example II above was also repeated using a combination of forskolin and oxagrelate.

mice [5] = experiment: overt toxicity observation in mice after i.p. administration; format: in vivo, mouse (C57BL/6); conditions: 82 micrograms/mouse
Protocol: as §1, with “microscope. […] FIG. 2 presents typical specimens of lungs from untreated and forskolin-treated mice of experiments 2 and 3.” for “microscope.”

[6] = test system: membrane adenylate cyclase; conditions: human platelets, via stimulation of membrane adenylate cyclase; cited from earlier work
platelet aggregation [7] = conditions: induced by a wide variety of aggregation stimulators; cited from earlier work
mice [8] = conditions: cited from earlier work

Row | Structure (SMILES) | potency in inhibiting platelet aggregation in vitro relative to forskolin (platelet aggregation [1]) | potency as inhibitor of pulmonary tumor metastasis, PGI2 versus forskolin [2] | decrease in pulmonary tumor foci ([3]; PGI2 50-200 micrograms/mouse (Honn)) | pulmonary tumor colonization ([3]; PGI2, i.v. injection (Honn et al. 1981)) | inhibition at 0.4 µM ([4]; Homo sapiens, B16-F10, forskolin 0.4 micromolar alone, read-out: inhibition of tumor cell-induced platelet aggregation) | melanoma cell-induced human platelet aggregation, inhibition ([4]; forskolin 2 micromolar, 5 min preincubation of PRP, B16-F10 2×10^6/ml) | in vitro inhibitory effect in combination with 2-fluoroadenosine ([4]; forskolin combined with 2-fluoroadenosine (F-Ado)) | in vitro inhibitory effect in combination with prostaglandin E ([4]; forskolin combined with prostaglandin E) | Median number of pulmonary tumor foci (B16-F10 melanoma cells; Experiment 1, 2×10^5 cells/mouse, i.p. 60 min before, 9 days, control median 189) | Median number of pulmonary tumor foci (B16-F10 melanoma cells; Experiment 2, 3×10^5 cells/mouse, i.p. 30 min before, 14 days, control median 210) | Median number of pulmonary tumor foci (B16-F10 melanoma cells; Experiment 3, 3×10^5 cells/mouse, i.p. 30 min before, 14 days, control median >600 (estimated)) | No. of pulmonary tumor foci (per mouse) (B16-F10 melanoma cells; Experiment 3, 3×10^5 cells/mouse, i.p. 30 min before, 14 days, mice about 5 weeks old, control >600 (estimated)) | appearance of tumor foci (dissecting microscope) (B16-F10 melanoma cells; experiments 2 and 3, compared with untreated mice) | direct effect on melanoma cells (B16-F10 melanoma cells; forskolin i.p. prior to tail vein injection of cells) | overt signs of toxicity (mice [5]) | increase of intracellular concentration of cyclic AMP [6] | inhibition of human platelet aggregation (platelet aggregation [7]) | LD 50 (mice [8]; i.p.) | LD 50 (mice [8]; per OS) | inhibition at 20 µM ([4]; Homo sapiens, B16-F10, oxagrelate 20 micromolar alone, read-out: inhibition of tumor cell-induced platelet aggregation)
1 | CCCCC[C@H](O)/C=C/[C@@H]1[C@H]2C/C(=C/CCCC(=O)O)O[C@H]2C[C@H]1O [PGI2, prostacyclin] | several hundred-fold more potent | similar | greater than 50% | reduces pulmonary tumor colonization | – | – | – | – | – | – | – | – | – | – | – | – | – | – | – | –
2 | C=C[C@@]1(C)CC(=O)[C@]2(O)[C@@]3(C)[C@@H](O)CCC(C)(C)[C@@H]3[C@H](O)[C@H](OC(C)=O)[C@@]2(C)O1 [forskolin, 7 beta-acetoxy-8,13-epoxy-1 alpha,6 beta,9 alpha trihydroxy-labd-14-en-11-one] | – | similar | – | – | 20% | strongly inhibits; also recorded: strongly blocked | potentiated | potentiated | 3.1 | 1 | 149.5 | 219,250,281 | smaller and more superficial | without effecting the melanoma cells directly | No overt signs of toxicity | several-fold | blocks human platelet aggregation | 105 mg/kg | 3,100 mg/kg | –
3 | CCOC(=O)c1c(C)cc2c(CO)nnc(O)c2c1C [oxagrelate] | – | – | – | – | – | – | – | – | – | – | – | – | – | – | – | – | – | – | – | 20%
